Source: the supplement of paper PMC13380429
± gives the standard deviation of the averaged measurements.

How the values were obtained:
Conditions in all cases: 72 h
Vero E6 [1] = assay: drug sensitivity score (DSS) for viability; higher = more toxic; extreme values may be limits of the assay
U2OS [2] = assay: as above
Caco-2 [3] = assay: as above
Calu-3 [4] = assay: as above
HepG2 [5] = assay: as above
Vero E6 [6] = assay: cell viability relative to DMSO; higher = less toxic
U2OS [7] = assay: as above
Caco-2 [8] = assay: as above
Calu-3 [9] = assay: as above
HepG2 [10] = assay: as above
Vero E6 [11] = assay: relative viability EC50 (midpoint between 100% and the lowest measured viability); higher = less toxic
U2OS [12] = assay: as above
Caco-2 [13] = assay: as above
Calu-3 [14] = assay: as above
HepG2 [15] = assay: as above

| SMILES | drug sensitivity score (Vero E6 [1]) | drug sensitivity score (U2OS [2]) | drug sensitivity score (Caco-2 [3]) | drug sensitivity score (Calu-3 [4]) | drug sensitivity score (HepG2 [5]) | cell viability (Vero E6 [6]; 1 nM) [%] | cell viability (Vero E6 [6]; 10 nM) [%] | cell viability (Vero E6 [6]; 100 nM) [%] | cell viability (Vero E6 [6]; 1000 nM) [%] | cell viability (Vero E6 [6]; 10000 nM) [%] | cell viability (U2OS [7]; 1 nM) [%] | cell viability (U2OS [7]; 10 nM) [%] | cell viability (U2OS [7]; 100 nM) [%] | cell viability (U2OS [7]; 1000 nM) [%] | cell viability (U2OS [7]; 10000 nM) [%] | cell viability (Caco-2 [8]; 1 nM) [%] | cell viability (Caco-2 [8]; 10 nM) [%] | cell viability (Caco-2 [8]; 100 nM) [%] | cell viability (Caco-2 [8]; 1000 nM) [%] | cell viability (Caco-2 [8]; 10000 nM) [%] | cell viability (Calu-3 [9]; 1 nM) [%] | cell viability (Calu-3 [9]; 10 nM) [%] | cell viability (Calu-3 [9]; 100 nM) [%] | cell viability (Calu-3 [9]; 1000 nM) [%] | cell viability (Calu-3 [9]; 10000 nM) [%] | cell viability (HepG2 [10]; 1 nM) [%] | cell viability (HepG2 [10]; 10 nM) [%] | cell viability (HepG2 [10]; 100 nM) [%] | cell viability (HepG2 [10]; 1000 nM) [%] | cell viability (HepG2 [10]; 10000 nM) [%] | relative viability EC50 (Vero E6 [11]) [µM] | relative viability EC50 (U2OS [12]) [µM] | relative viability EC50 (Caco-2 [13]) [µM] | relative viability EC50 (Calu-3 [14]) [µM] | relative viability EC50 (HepG2 [15]) [µM] |
| --- | --- | --- | --- | --- | --- | --- | --- | --- | --- | --- | --- | --- | --- | --- | --- | --- | --- | --- | --- | --- | --- | --- | --- | --- | --- | --- | --- | --- | --- | --- | --- | --- | --- | --- | --- |
| CC1(C)[C@H]2CC[C@]1(C)[C@@H](O)[C@H]2O [cis-exo-camphanediol-2,3] | 0 | 0 | 0 | 0 | 0 | 97.8 ± 2.5 | 96.5 ± 10 | 96.8 ± 1.5 | 94.8 ± 6.7 | 95.6 ± 3.2 | 99.55 ± 0.071 | 106 ± 1.4 | 99 ± 1.6 | 99.5 ± 3.2 | 99 ± 5.7 | 99.8 ± 5.1 | 104 ± 12 | 100 ± 9.5 | 102 ± 15 | 95.5 ± 5.4 | 104 ± 7.5 | 100 ± 1.9 | 106.2 ± 0.64 | 102 ± 5.9 | 97.85 ± 0.21 | 92 | 88.7 | 98.7 | 98.1 | 102 | > 10 | > 10 | > 10 | > 10 | > 10 |
| COc1cc(N)c(Cl)cc1C(=O)NC1CCN(Cc2ccccc2)CC1 [clebopride] | 0 | 0 | 0.1 | 0 | 0 | 93.6 | 104 | 102 | 97.6 | 98.1 | 93.7 | 97.2 | 96.8 | 97.3 | 94 | 107 | 99.9 | 108 | 102 | 85.6 | 94.3 | 101 | 107 | 96.6 | 94.2 | 97.1 | 97.5 | 95.1 | 104 | 94.7 | > 10 | > 10 | > 10 | > 10 | > 10 |
| Oc1c(I)cc(Cl)c2cccnc12 [clioquinol] | 0 | 0 | 0.2 | 0 | 0.7 | 106 | 99.3 | 108 | 111 | 87.2 | 97.1 | 93.6 | 100 | 96.4 | 99.5 | 93.5 | 92.2 | 108 | 99.7 | 85.8 | 95 | 93.2 | 104 | 87.8 | 97.1 | 101 | 98.7 | 92.8 | 104 | 75.6 | > 10 | > 10 | > 10 | > 10 | > 10 |
| Nc1ncnc2c1ncn2[C@@H]1O[C@@H]2COP(=O)(O)O[C@H]2[C@H]1O [cyclic-AMP] | 0 | 0 | 0 | 0 | 0 | 102 | 98.6 | 93.9 | 102 | 98.9 | 103 | 103 | 96.1 | 102 | 99.6 | 89.8 | 93 | 94.5 | 93.5 | 95.9 | 100 | 107 | 103 | 111 | 95.5 | 97.7 | 100 | 89.5 | 102 | 92.2 | > 10 | > 10 | > 10 | > 10 | > 10 |
| O=c1cccc2n1C[C@@H]1CNC[C@H]2C1 [cytisine] | 0 | 0 | 0 | 0 | 0 | 88.2 | 98.6 | 92.5 | 97.3 | 108 | 102 | 96.2 | 101 | 100 | 102 | 93.3 | 92.2 | 92.4 | 91.3 | 96.5 | 101 | 95.6 | 99 | 95.4 | 104 | 102 | 101 | 96.4 | 97 | 114 | > 10 | > 10 | > 10 | > 10 | > 10 |
| O=C1c2c(O)cc(O)cc2O[C@H](c2cc(O)c(O)c(O)c2)[C@H]1O [dihydromyricetin] | 0 | 0 | 0 | 0 | 0 | 96.1 | 96 | 96.4 | 98.4 | 103 | 102 | 95.8 | 103 | 106 | 104 | 102 | 92.3 | 95.6 | 100 | 97.4 | 105 | 98.2 | 93.7 | 111 | 90.3 | 95.8 | 94.5 | 98.5 | 94.7 | 103 | > 10 | > 10 | > 10 | > 10 | > 10 |
| O=S(=O)(O)CCSSCCS(=O)(=O)O [dimesna] | 0 | 0 | 0 | 1.4 | 0 | 101 | 108 | 104 | 98.5 | 100 | 104 | 98.7 | 103 | 104 | 101 | 95.7 | 99.5 | 101 | 98.5 | 92.5 | 96.8 | 96.3 | 85.7 | 90.7 | 86.2 | 94.6 | 98.8 | 102 | 98.7 | 97.7 | > 10 | > 10 | > 10 | > 10 | > 10 |
| CCCCc1cc2ccccc2c(OCCN(C)C)n1 [dimethisoquin] | 0 | 0 | 0 | 0 | 0 | 106 | 97.5 | 97.3 | 96.1 | 94.3 | 98.9 | 106 | 102 | 105 | 91.3 | 107 | 102 | 91.5 | 105 | 97.6 | 104 | 97.7 | 92.3 | 95.6 | 98.3 | 103 | 104 | 109 | 91.2 | 102 | > 10 | > 10 | > 10 | > 10 | > 10 |
| CN(C)CCOC(C)(c1ccccc1)c1ccccn1 (stereo not given) [doxylamine] | 0 | 0 | 0 | 0 | 0 | 99.5 | 102 | 100 | 100 | 99.6 | 104 | 100 | 103 | 98.4 | 101 | 106 | 97.6 | 98.6 | 98.1 | 104 | 98.6 | 105 | 98.6 | 106 | 108 | 102 | 101 | 101 | 106 | 99.8 | > 10 | > 10 | > 10 | > 10 | > 10 |
| CCOC(=O)COc1ccc2c(=O)cc(-c3ccccc3)oc2c1 [efloxate] | 0 | 0 | 0 | 3 | 0 | 97 | 100 | 91.9 | 101 | 106 | 95.4 | 95.5 | 98.7 | 96.7 | 99.2 | 93 | 88.6 | 101 | 101 | 96.1 | 105 | 98.9 | 85.8 | 83.5 | 99.1 | 97.9 | 100 | 98.3 | 99.2 | 99.3 | > 10 | > 10 | > 10 | > 10 | > 10 |
| COC(=O)N[C@H](C(=O)N1CCC[C@H]1c1nc(-c2ccc3c(c2)O[C@@H](c2ccccc2)n2c-3cc3cc(-c4c[nH]c([C@@H]5CCCN5C(=O)[C@@H](NC(=O)OC)C(C)C)n4)ccc32)c[nH]1)C(C)C [elbasvir] | 0 | 0 | 0 | 0 | 0 | 105 | 98.5 | 95.3 | 95.5 | 107 | 90.3 | 100 | 98.2 | 97.8 | 99.7 | 85 | 103 | 93.1 | 96.1 | 101 | 99.9 | 106 | 95.8 | 107 | 102 | 110 | 88.7 | 108 | 104 | 96.8 | > 10 | > 10 | > 10 | > 10 | > 10 |
| O=c1oc2c(O)c(O)cc3c(=O)oc4c(O)c(O)cc1c4c23 [ellagic-acid] | 0 | 0 | 0 | 0 | 0 | 99.1 | 106 | 100 | 105 | 107 | 99.3 | 99.6 | 103 | 100 | 105 | 104 | 95.8 | 104 | 98.5 | 96.6 | 98.4 | 95.9 | 99.4 | 100 | 93.2 | 93.6 | 97 | 97.5 | 96.4 | 91.9 | > 10 | > 10 | > 10 | > 10 | > 10 |
| CCOC(=O)Nc1ccc2c(c1)N(C(=O)CCN(CC)CC)c1ccccc1S2 [ethacizin] | 0 | 0 | 0 | 0 | 0.2 | 104 | 91.8 | 103 | 88.9 | 106 | 97.2 | 105 | 95.6 | 101 | 95.9 | 94.6 | 82.9 | 97.8 | 103 | 97.6 | 98.3 | 94.8 | 97.4 | 99.2 | 98.1 | 86.4 | 90.4 | 80.8 | 92.7 | 104 | > 10 | > 10 | > 10 | > 10 | > 10 |
| O=C(OCC(O)CO)c1ccccc1Nc1ccnc2c(C(F)(F)F)cccc12 (stereo not given) [floctafenine] | 0 | 0 | 0 | 0.7 | 0 | 98.3 | 107 | 95.4 | 101 | 104 | 101 | 99.4 | 100 | 98.5 | 93.4 | 92.2 | 90.2 | 95.9 | 92.5 | 96.9 | 108 | 98.5 | 95.9 | 98.7 | 81.1 | 101 | 106 | 107 | 105 | 92.2 | > 10 | > 10 | > 10 | > 10 | > 10 |
